The results in this text go back to PubChem BioAssay (NCI).

Some test systems named below: A549 NSCLC; SNB-19 CNS; PC-3 prostate; MDA-MB-231 breast; M14 melanoma; SF-539 CNS; NCI-H226 lung; LOX IMVI melanoma; IGROV1 ovarian; UO-31 renal; OVCAR-5 ovarian; SF-295 CNS; SR leukemia; HCT-116 colon; K-562 leukemia; SK-MEL-28 melanoma; SW-620 colon; UACC-62 melanoma.
What all share (assay): NCI tumour cell line growth inhibition, 48 h

Where “and” joins values, the source holds several entries; their conditions need not be identical. Equal values may be shown once.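 Cultured in 96-well plates, cells were exposed to test compound for 48 hours across five concentrations. GI50 marks 50% less growth. At the TGI there is no net growth.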

With `CC(C)NC(=O)OCc1c(COC(=O)NC(C)C)c(-c2ccc[n+](COC(=O)C(C)(C)C)c2)n2c1CCC2`, the TGI in the assay on A549 NSCLC, in the assay on SNB-19 CNS, with PC-3 prostate, in the assay with MDA-MB-231 breast, in the assay with M14 melanoma and in the assay with SF-539 CNS was greater than 100 µM in each case. Further, the TGI with NCI-H226 lung, in the assay on LOX IMVI melanoma, in the assay on IGROV1 ovarian, in the assay with UO-31 renal, in the assay on OVCAR-5 ovarian and in the assay on SF-295 CNS was greater than 100 µM each time. The TGI in the assay on SR leukemia, in the assay on HCT-116 colon, in the assay with K-562 leukemia, with SK-MEL-28 melanoma, with SW-620 colon and in the assay with UACC-62 melanoma was greater than 100 µM throughout.
`Cn1c(=O)n2n(c1=O)[C@@H](c1ccccc1)[C@H]2c1ccccc1`: the TGI with A549 NSCLC, in the assay on SNB-19 CNS, in the assay with PC-3 prostate, in the assay on MDA-MB-231 breast, in the assay on M14 melanoma and in the assay with SF-539 CNS was greater than 100 µM each time. The TGI with NCI-H226 lung, in the assay with LOX IMVI melanoma, with IGROV1 ovarian, in the assay with UO-31 renal, with OVCAR-5 ovarian and with SF-295 CNS was greater than 100 µM throughout. Further, the TGI in the assay on SR leukemia, in the assay with HCT-116 colon, with K-562 leukemia, in the assay on SK-MEL-28 melanoma, with SW-620 colon and in the assay on UACC-62 melanoma was greater than 100 µM throughout.
For the molecule `O=Nc1c(NO)ccc2nn(-c3ccccc3)nc12`, the TGI in the assay on A549 NSCLC is greater than 100 µM; in the assay on SNB-19 CNS, greater than 100 µM; in the assay with PC-3 prostate it was greater than 100 µM; with MDA-MB-231 breast, greater than 100 µM; in the assay with M14 melanoma, greater than 100 µM; with SF-539 CNS it was 18.4 µM. For the same molecule, the TGI with NCI-H226 lung is 6.64 µM; in the assay on LOX IMVI melanoma, greater than 100 µM; in the assay on IGROV1 ovarian, 49.4 µM; in the assay with UO-31 renal, 11.8 µM; in the assay on OVCAR-5 ovarian it was 37.6 µM; in the assay on SF-295 CNS it was greater than 100 µM. The TGI with SR leukemia is greater than 100 µM; in the assay on HCT-116 colon, 23.1 µM; in the assay on K-562 leukemia, greater than 100 µM; in the assay on SK-MEL-28 melanoma, 43.3 µM; in the assay on SW-620 colon, greater than 100 µM; with UACC-62 melanoma, 9.21 µM.
In the case of `O=C(OCc1ccccc1)N1CCCc2c(n(S(=O)(=O)c3ccccc3)c3ccccc23)C1`, the TGI in the assay with A549 NSCLC, with SNB-19 CNS, in the assay on PC-3 prostate, in the assay on MDA-MB-231 breast, in the assay with M14 melanoma and in the assay with SF-539 CNS was greater than 100 µM throughout. In addition, the TGI with NCI-H226 lung, in the assay on LOX IMVI melanoma, in the assay with IGROV1 ovarian, in the assay on UO-31 renal, with OVCAR-5 ovarian and in the assay with SF-295 CNS was greater than 100 µM in each case. Further, the TGI with SR leukemia, with HCT-116 colon, in the assay with K-562 leukemia, with SK-MEL-28 melanoma, with SW-620 colon and with UACC-62 melanoma was greater than 100 µM in each case.
Consider `CN(C)CCCN1c2ccccc2CCc2cc([N+](=O)[O-])ccc21`, for which the TGI was 70.2 µM and 37.7 µM with A549 NSCLC; > 100 µM and 31.7 µM with SNB-19 CNS; 76.8 µM and 34.3 µM with PC-3 prostate; 52.7 µM and 30.2 µM in the assay with MDA-MB-231 breast; 38.1 µM and 31.1 µM in the assay on M14 melanoma; 74.5 µM and 31.4 µM with SF-539 CNS. Further, the TGI in the assay on NCI-H226 lung was 68 µM and 32.6 µM; with LOX IMVI melanoma, 37.2 µM and 28.2 µM; in the assay on IGROV1 ovarian it was 53.2 µM and 29.8 µM; in the assay with UO-31 renal, 70.8 µM and 28.7 µM; in the assay on OVCAR-5 ovarian, 63.9 µM and 31.8 µM; in the assay on SF-295 CNS, 45.1 µM and 28.4 µM. The TGI with SR leukemia was 90.6 µM and 44 µM; in the assay with HCT-116 colon it was 41 µM and 29.7 µM; with K-562 leukemia, > 100 µM and 38.6 µM; in the assay with SK-MEL-28 melanoma it was 80.9 µM and 28.2 µM; in the assay with SW-620 colon, > 100 µM and 32.6 µM; in the assay with UACC-62 melanoma it was 29.2 µM and 27.5 µM. Also, the GI50 in the assay on SK-MEL-28 melanoma was 28.2 µM and 13.9 µM; in the assay on SW-620 colon, 37.2 µM and 16.3 µM.
Regarding `c1cc(NC2=NCCO2)c2c(c1)OCO2`, the TGI in the assay with A549 NSCLC, in the assay with SNB-19 CNS, in the assay with PC-3 prostate, in the assay with MDA-MB-231 breast, in the assay with M14 melanoma and with SF-539 CNS was greater than 100 µM each time. The TGI in the assay on NCI-H226 lung, in the assay on LOX IMVI melanoma, with IGROV1 ovarian, in the assay with UO-31 renal, in the assay on OVCAR-5 ovarian and in the assay on SF-295 CNS was greater than 100 µM throughout. The TGI in the assay on SR leukemia, with HCT-116 colon, in the assay with K-562 leukemia, in the assay on SK-MEL-28 melanoma, in the assay on SW-620 colon and in the assay on UACC-62 melanoma was greater than 100 µM in each case.
Regarding `O=C(O)c1ccc(NNC(=O)c2cccc3c(=O)c4ccccc4[nH]c23)cc1`, the TGI in the assay with A549 NSCLC, in the assay with SNB-19 CNS, with PC-3 prostate, with MDA-MB-231 breast, in the assay on M14 melanoma and with SF-539 CNS was greater than 100 µM in each case. Moreover, the TGI in the assay on NCI-H226 lung, with LOX IMVI melanoma, in the assay with IGROV1 ovarian, in the assay with UO-31 renal, in the assay on OVCAR-5 ovarian and in the assay with SF-295 CNS was greater than 100 µM each time. Also, the TGI in the assay with SR leukemia, in the assay with HCT-116 colon, in the assay with K-562 leukemia, with SK-MEL-28 melanoma, with SW-620 colon and in the assay on UACC-62 melanoma was greater than 100 µM in each case.
As for `C=C(CN)CO[Si](C)(C)C(C)(C)C`, the TGI with A549 NSCLC, in the assay with SNB-19 CNS, in the assay on PC-3 prostate, in the assay with MDA-MB-231 breast, in the assay on M14 melanoma and with SF-539 CNS was greater than 100 µM throughout. The TGI with NCI-H226 lung, with LOX IMVI melanoma, with IGROV1 ovarian, with UO-31 renal, in the assay on OVCAR-5 ovarian and with SF-295 CNS was greater than 100 µM throughout. Also, the TGI with SR leukemia, with HCT-116 colon, in the assay on K-562 leukemia, in the assay on SK-MEL-28 melanoma, with SW-620 colon and in the assay on UACC-62 melanoma was greater than 100 µM each time.
As to `O=c1cc(-c2cccc(OCc3ccccc3)c2)[nH]c2cc3c(cc12)OCO3`, the TGI in the assay with A549 NSCLC is greater than 22.7 µM; in the assay on SNB-19 CNS, 14.9 µM; in the assay with PC-3 prostate, greater than 100 µM; with MDA-MB-231 breast, 9.03 µM; in the assay on M14 melanoma it was greater than 84.5 µM; with SF-539 CNS, 0.564 µM. Also, the TGI is 7.79 µM with NCI-H226 lung; greater than 100 µM in the assay on LOX IMVI melanoma; greater than 100 µM in the assay with IGROV1 ovarian; 16 µM in the assay with UO-31 renal; greater than 100 µM with OVCAR-5 ovarian; 14.4 µM in the assay on SF-295 CNS. The TGI was greater than 100 µM with SR leukemia; greater than 100 µM in the assay with HCT-116 colon; greater than 100 µM with K-562 leukemia; greater than 100 µM with SK-MEL-28 melanoma; greater than 100 µM in the assay on SW-620 colon; 12.3 µM in the assay with UACC-62 melanoma.
In the case of `CC1=CC(=O)/C(=C/n2c(=S)[nH]c3ccc([N+](=O)[O-])cc32)C(=O)O1`, the TGI with A549 NSCLC, in the assay on SNB-19 CNS, in the assay with PC-3 prostate, in the assay on MDA-MB-231 breast, with M14 melanoma and in the assay with SF-539 CNS was greater than 100 µM in each case. In addition, the TGI with NCI-H226 lung, in the assay on LOX IMVI melanoma, in the assay on IGROV1 ovarian, in the assay on UO-31 renal, with OVCAR-5 ovarian and in the assay on SF-295 CNS was greater than 100 µM in each case. Also, the TGI with SR leukemia, with HCT-116 colon, in the assay on K-562 leukemia, in the assay on SK-MEL-28 melanoma, in the assay with SW-620 colon and in the assay on UACC-62 melanoma was greater than 100 µM throughout.
For `CC1=C[C@@H]2[C@@H](CC(CO)=C[C@H]3[C@@H]4C(C)(C)[C@]4(OCC(C)C)[C@H](OCC(C)C)[C@@H](C)[C@]23O)C1=O`, the TGI in the assay with A549 NSCLC was greater than 8.32 µM; in the assay with SNB-19 CNS, greater than 8.32 µM; in the assay on PC-3 prostate, greater than 4.51 µM; in the assay with MDA-MB-231 breast it was 3.39 µM; in the assay on M14 melanoma, greater than 5.15 µM; in the assay on SF-539 CNS, 2.87 µM. Moreover, the TGI was greater than 4.53 µM in the assay with NCI-H226 lung; 3.06 µM with LOX IMVI melanoma; 4.8 µM in the assay on IGROV1 ovarian; greater than 6.8 µM in the assay with UO-31 renal; 8.23 µM in the assay on OVCAR-5 ovarian; greater than 8.32 µM in the assay with SF-295 CNS. Also, the TGI in the assay with SR leukemia is 3.32 µM; with HCT-116 colon, greater than 4.72 µM; with K-562 leukemia, greater than 4.86 µM; with SK-MEL-28 melanoma, 3.38 µM; in the assay on SW-620 colon, 4.68 µM; in the assay on UACC-62 melanoma, 3.2 µM.
For `Cc1cn(C2CC(NC(=NCC3OC(n4cnc5c(N)ncnc54)CC3O)NC#N)C(CO)O2)c(=O)[nH]c1=O` (stereo not drawn), the TGI in the assay with A549 NSCLC, in the assay with SNB-19 CNS, in the assay on PC-3 prostate, with MDA-MB-231 breast, with M14 melanoma and in the assay on SF-539 CNS was greater than 100 µM throughout. Besides, the TGI in the assay with NCI-H226 lung, in the assay with LOX IMVI melanoma, in the assay with IGROV1 ovarian, in the assay with UO-31 renal, in the assay with OVCAR-5 ovarian and in the assay with SF-295 CNS was greater than 100 µM each time. For the same molecule, the TGI in the assay on SR leukemia, in the assay on HCT-116 colon, with K-562 leukemia, with SK-MEL-28 melanoma, with SW-620 colon and with UACC-62 melanoma was greater than 100 µM each time.
